Results reported in US8581005B2, “Mitochondrial inhibitors to treat human disease” (Albert Einstein College of Medicine of Yeshiva University, priority 2009, dated 2013).
Where two headings read alike, the source gives them in different places.

Tests used:
[1] = tested on: Sacchromyces cerevisiae strain J47D; test: In vitro cell proliferation assay (yeast proliferation); format: cell-based; set-up: key to Inhibition of yeast proliferation: (+) Complete inhibition (no proliferation); (−) no inhibition (normal proliferation); (+/−) partial inhibition; (i) compound insoluble
Method: (§1) Sacchromyces cerevisiae strain J47D in log phase growth, was plated in 96 well dishes at 1.5×10^4 cells/well in YEPD media. Magmas inhibitors were diluted in DMSO and added at various concentrations (range 0 mM to 1 mM) to each well in triplicate at a final DMSC concentration of 1%. Samples were cultured at 30° C. in a Bioscreen C MBR incubator (Growth Curves USA, Piscataway, N.J.) and optical density (OD) readings were measured every 30 minutes for the indicated time in the plots. Cell proliferation data was analyzed and plotted using Microsoft Excel. Standard deviations were smaller than 2% of the mean OD value (n=3), and each experiment was performed at least two independent times.
Reduced Magmas function caused by siRNA knockdown or by mutations in Magmas causes growth inhibition and cell cycle arrest. To assay whether the compounds were active, their ability to inhibit yeast proliferation was measured. The results obtained in yeast are equivalent to those found in mammalian cells in part because the human homolog is fully functional in yeast and the target region is identical across all eukaryotic species.

HeLa cells = test: Mitotracker Red mitochondrial activity; format: cell-based; conditions: 6 μM for 12 hours
Method: HeLa cells were treated with 6 μM Compound 9 for 12 hours. The cells were then incubated with Mitotracker Red (100 nM) for 15 minutes, washed, fixed with formaldehyde, and examined by fluorescent microscopy. […] This confirms that the invention affects mitochondrial activity.

purified yeast Magmas = target: T1, purified yeast Magmas (Saccharomyces cerevisiae, UniProt P42949); test: Binding to Magmas by fluorescence emission spectrum (tryptophan)
T1 sequence (P42949 1-149): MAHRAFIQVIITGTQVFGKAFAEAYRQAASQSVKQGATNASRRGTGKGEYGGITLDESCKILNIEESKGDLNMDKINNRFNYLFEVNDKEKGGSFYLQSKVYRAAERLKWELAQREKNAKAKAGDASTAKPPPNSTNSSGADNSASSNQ
Method: (§2) The binding of 9 to both purified yeast and mouse Magmas was evaluated. The fluorescence spectrum of tryptophan was measured for the binding to the yeast target and the fluorescence spectrum of tyrosine was measured for the binding to the murine target. The spectral shift observed at varying concentrations of 9 was used to determine the binding constant (FIG. 3).

HUVEC = test: Viability of human cells, trypan blue dye exclusion; format: cell-based; set-up: key to viability of human cells: (+) Viable; (−) dead; (+/−) partial viability; conditions: for viability of human cells: HUVEC, 48 hrs
Method: (§3) Cell lines derived from human hematological malignancies and glioblastoma multiforme, and human umbilical vascular endothelial cells (HUVEC) were cultured in standard media with the concentrations of 9 indicated in Table 3. Viable cells were scored by trypan blue dye exclusion at 48 hrs. The HUVEC population consisted of a pool of primary cells isolated from the blood vessels of 4 umbilical cords. Each cell type was tested in duplicate in at least three independent experiments.

purified mouse Magmas = target: T2, purified mouse Magmas (Mus musculus, UniProt Q9CQV1); test: Binding to Magmas by fluorescence emission spectrum (tyrosine); conditions: murine Magmas, FIG. 3B; read-out: calculated Kd
T2 sequence (Q9CQV1 1-125): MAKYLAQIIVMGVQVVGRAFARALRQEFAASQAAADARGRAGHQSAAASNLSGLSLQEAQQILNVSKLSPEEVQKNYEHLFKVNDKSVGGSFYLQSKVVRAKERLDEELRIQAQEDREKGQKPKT
Method: as §2

[2] = tested on: yeast strains containing several different Magmas mutations expressed on a plasmid; test: Yeast proliferation assay with Magmas mutations and over-expression; format: cell-based
Source text: Mutations in Magmas were introduced by error prone PCR and the changes were identified by sequencing. Only genes with a single amino acid change were further analyzed. The genes encoding the mutations were spliced into plasmid pRS315 containing the selectable […] marker (leu) and transfected into yeast where the wt genomic copy was replaced by a his cassette and the essential Magmas activity was maintained by wt Magmas in the plasmid pRS316 (ura). The plasmid containing the wt Magmas gene was lost by selection in media containing FOA, resulting in yeast strains only expressing the mutant gene. Total yeast protein from each of the strains was separated by SDS-PAGE, and transferred to nitrocellulose membranes. The membranes were sequentially incubated with rabbit anti-Magmas antibody, HRP conjugated goat anti-rabbit antibody and chemiluminescence reagent. The signal was captured with a Fujifilm LAS-3000 Imager and the data analyzed with ImageGage software.
as §1
All of these stains express similar levels of Magmas protein, which is approximately 4 fold higher than the haploid control (Wt genomic).

K562 = test: Viability of human cells, trypan blue dye exclusion; format: cell-based; set-up: key: (+) Viable; (−) dead; (+/−) partial viability; conditions: 48 hrs
Method: as §3

U87 = test: as above; format: cell-based; set-up: key: (+) Viable; (−) dead; (+/−) partial viability; conditions: 48 hrs
Method: as §3

U118 = test: as above; format: cell-based; set-up: key: (+) Viable; (−) dead; (+/−) partial viability; conditions: 48 hrs
Method: as §3

Karpas = test: as above; format: cell-based; set-up: key: (+) Viable; (−) dead; (+/−) partial viability; conditions: 48 hrs
Method: as §3

Pfeiffer = test: as above; format: cell-based; set-up: key: (+) Viable; (−) dead; (+/−) partial viability; conditions: 48 hrs
Method: as §3

Toledo = test: as above; format: cell-based; set-up: key: (+) Viable; (−) dead; (+/−) partial viability; conditions: 48 hrs
Method: as §3

c1ccc(C2=Nc3ccccc3OC2)cc1 [Compound 1]
not effective: Effect on yeast proliferation ([1]; doses up to and including 6 μM)

Clc1ccc2c(c1)C=CC(c1ccccc1)O2 (stereo not drawn) [Compound 4]
i: Inhibition of yeast proliferation ([1]; 1 mM)
+: Inhibition of yeast proliferation ([1]; 100 μM)
−: Inhibition of yeast proliferation ([1]; 1 μM) | Inhibition of yeast proliferation ([1]; 10 μM)

CCC1=C(C)/C(=C/c2ccc(C(=O)NC(=N)N)cc2)CCC1(C)C [Compound 9]
reduced: Mitotracker Red intensity (HeLa cells)
increased resistance: Sensitivity of yeast to Compound 9 ([2]; Magmas N84T vs Wt plasmid)
1.8 times: lengthening of the time to half maximal growth ([1]; 4 μM)
36 µM: Kd (purified mouse Magmas)
+/−: viability of human cells (HUVEC; 20 um) | viability of human cells (K562; K562, 2 um) | viability of human cells (K562; K562, 4 um) | viability of human cells (U87; U87, 2 um) | viability of human cells (U87; U87, 4 um) | viability of human cells (U118; U118, 2 um) | viability of human cells (Karpas; 2 um) | viability of human cells (Karpas; 4 um) | viability of human cells (Karpas; 6 um) | viability of human cells (Pfeiffer; 2 um) | viability of human cells (Pfeiffer; 4 um) | viability of human cells (Toledo; 2 um) | viability of human cells (Toledo; 4 um)
+: viability of human cells (HUVEC; 2 um) | viability of human cells (HUVEC; 4 um) | viability of human cells (HUVEC; 6 um) | viability of human cells (HUVEC; 8 um) | viability of human cells (HUVEC; 12 um) | viability of human cells (HUVEC; 16 um) | Inhibition of yeast proliferation ([1]; 10 μM) | Inhibition of yeast proliferation ([1]; 100 μM) | Inhibition of yeast proliferation ([1]; 1 mM)
33 µM: Kd (purified yeast Magmas; yeast Magmas, FIG. 3A, read-out: calculated Kd)
increased sensitivity: Sensitivity of yeast to Compound 9 ([2]; Magmas A104S)
−: viability of human cells (HUVEC; 24 um) | Inhibition of yeast proliferation ([1]; 1 μM) | viability of human cells (K562; K562, 6 um) | viability of human cells (K562; K562, 8 um) | viability of human cells (K562; K562, 12 um) | viability of human cells (K562; K562, 16 um) | viability of human cells (K562; K562, 20 um) | viability of human cells (K562; K562, 24 um) | viability of human cells (U87; U87, 6 um) | viability of human cells (U87; U87, 8 um) | viability of human cells (U87; U87, 12 um) | viability of human cells (U87; U87, 16 um) | viability of human cells (U87; U87, 20 um) | viability of human cells (U87; U87, 24 um) | viability of human cells (U118; U118, 4 um) | viability of human cells (U118; U118, 6 um) | viability of human cells (U118; U118, 8 um) | viability of human cells (U118; U118, 12 um) | viability of human cells (U118; U118, 16 um) | viability of human cells (U118; U118, 20 um) | viability of human cells (U118; U118, 24 um) | viability of human cells (Karpas; 8 um) | viability of human cells (Karpas; 12 um) | viability of human cells (Karpas; 16 um) | viability of human cells (Karpas; 20 um) | viability of human cells (Karpas; 24 um) | viability of human cells (Pfeiffer; 6 um) | viability of human cells (Pfeiffer; 8 um) | viability of human cells (Pfeiffer; 12 um) | viability of human cells (Pfeiffer; 16 um) | viability of human cells (Pfeiffer; 20 um) | viability of human cells (Pfeiffer; 24 um) | viability of human cells (Toledo; 6 um) | viability of human cells (Toledo; 8 um) | viability of human cells (Toledo; 12 um) | viability of human cells (Toledo; 16 um) | viability of human cells (Toledo; 20 um) | viability of human cells (Toledo; 24 um)
34 ± 2 µM: Kd (purified yeast Magmas; yeast target, read-out: binding constant)
significant and reproducible inhibition: Effect on yeast proliferation ([1]; 4 μM)
reduces sensitivity: Sensitivity of yeast to Compound 9 ([2]; over-expression of Magmas: Wt plasmid vs Wt genomic)
fully inhibited growth: Effect on yeast proliferation ([1]; 10 μM)
4 to 5 fold: sensitivity of tumor cell lines relative to normal primary cells (HUVEC) (HUVEC; tumor cell lines vs HUVEC, viability at 48 hrs)

O=[N+]([O-])c1ccc2c(c1)C=CC(c1ccccc1)O2 (stereo not drawn) [Compound 5]
inactive: Effect on yeast proliferation ([1]; all concentrations)
−: Inhibition of yeast proliferation ([1]; 1 μM) | Inhibition of yeast proliferation ([1]; 10 μM) | Inhibition of yeast proliferation ([1]; 100 μM) | Inhibition of yeast proliferation ([1]; 1 mM)

O=[N+]([O-])c1ccc2c(c1)N=C(c1ccccc1)CO2 [Compound 2]
not effective: Effect on yeast proliferation ([1]; doses up to and including 6 μM)

Brc1ccc2c(c1)C=CC(c1ccccc1)O2 (stereo not drawn) [Compound 6]
+: Inhibition of yeast proliferation ([1]; 100 μM) | Inhibition of yeast proliferation ([1]; 1 mM)
−: Inhibition of yeast proliferation ([1]; 1 μM)
partially inhibitory: Effect on yeast proliferation ([1]; 10 μM)
+/−: Inhibition of yeast proliferation ([1]; 10 μM)

Oc1cccc2c1OC(c1ccccc1)C=C2 (stereo not drawn) [Compound 7]
not effective: Effect on yeast proliferation ([1]; doses up to and including 6 μM)

Clc1ccc2c(c1)N=C(c1ccccc1)CO2 [Compound 3]
not effective: Effect on yeast proliferation ([1]; doses up to and including 6 μM)

CCCCCCCCC1C=Cc2cc([N+](=O)[O-])ccc2O1 (stereo not drawn) [Compound 8]
+: Inhibition of yeast proliferation ([1]; 100 μM)
i: Inhibition of yeast proliferation ([1]; 1 mM)
−: Inhibition of yeast proliferation ([1]; 1 μM) | Inhibition of yeast proliferation ([1]; 10 μM)
